Source: US20250186386A1, “METHODS OF REDUCING THE NEED FOR PERIPHERAL ARTERIAL REVASCULARIZATION IN A STATIN-TREATED SUBJECT” (AMARIN PHARMACEUTICALS IRELAND LIMITED, priority 2018, published 2025)
Read-outs that look alike come from different tables or passages of the source.

Key:
[1] = system: hypertriglyceridemic patients with cardiovascular disease or at high risk for cardiovascular disease, on statin therapy; assay type: in vivo, human
Source text: The following study, also referred to as the REDUCE-IT clinical trial, was a large cardiovascular (CV) outcome trial designed to assess CV risk reduction benefit of AMR101 treatment (commercially known as VASCEPA®) versus placebo on the 5-point primary composite endpoint: CV death, non-fatal stroke, non-fatal myocardial infarction (MI), coronary revascularizations, or unstable angina requiring hospitalization.
A multi-center, prospective, randomized, double-blind, placebo-controlled, parallel-group study was performed to evaluate the effect of AMR101 (4 g per day) on cardiovascular health and mortality in hypertriglyceridemic patients with cardiovascular disease or at high risk for cardiovascular disease. The intended expanded indication of the study was treatment with AMR101 as an add-on to statin therapy to reduce the risk of cardiovascular events in patients with clinical cardiovascular disease or with multiple risk factors for cardiovascular disease.
The primary objective of this study was, in patients at LDL-C goal while on statin therapy, with established cardiovascular disease (CVD) or at high risk for CVD, and hypertriglyceridemia (e.g., fasting triglycerides (TG)≥200 mg/dL and <500 mg/dL), to evaluate the effect of AMR101 4 g daily on time from randomization to first occurrence of any component of the composite of the following major CV events: CV death; nonfatal MI; (including silent MI; electrocardiograms (ECGs) were performed annually for the detection of silent MIs); nonfatal stroke; coronary revascularization; and unstable angina determined to be caused by myocardial ischemia by invasive/non-invasive testing and requiring emergent hospitalization.
The key secondary objective of this study was to evaluate the effect of AMR101 4 g daily on the time from randomization to the first occurrence of the composite of following major CV events: CV death, nonfatal MI (including silent MI), and nonfatal stroke.
Other secondary objectives for this study were to evaluate the effect of therapy on time from randomization to the first occurrence of the following individual or composite endpoints: composite of CV death or nonfatal MI (including silent MI); fatal or nonfatal MI (including silent MI); non-elective coronary revascularization represented as the composite of emergent or urgent classifications; CV death; unstable angina determined to be caused by myocardial ischemia by invasive/non-invasive testing and requiring emergent hospitalization; fatal or nonfatal stroke; composite of total mortality, nonfatal MI (including silent MI), or nonfatal stroke; and total mortality.
Primary Efficacy Endpoint: The primary efficacy endpoint was time from randomization to the first occurrence of the composite of the following clinical events: CV death; nonfatal MI (including silent MI; ECGs were performed annually for the detection of silent MIs); nonfatal stroke; coronary revascularization; and unstable angina determined to be caused by myocardial ischemia by invasive/non-invasive testing and requiring emergent hospitalization. The first occurrence of any of these major adverse vascular events during the follow-up period of the study were included in the incidence.
Secondary Efficacy Endpoints: The key secondary efficacy endpoint was the time from randomization to the first occurrence of the composite of CV death, nonfatal MI (including silent MI), or nonfatal stroke. […]

[2] = REDUCE-IT: serious bleeding treatment-emergent adverse events (adverse events of special interest); assay type: in vivo, human; settings: Safety population
Method: Adverse Events of Special Interest: Bleeding-related adverse events, glucose control (fasting blood glucose and HbA1c), and indicators of hepatic disorders (e.g., ALT or AST increases >3×ULN, total bilirubin increases of ≥2×ULN) were summarized separately and compared between treatment groups.
(§1) Analysis of Safety: All analyses of safety were conducted on the safety population, which was defined as all randomized patients. The safety assessment was based on the frequency of adverse events, physical exams, vital signs and safety laboratory tests. AEs with new onset during the study between the initiation of study drug and 30 days after the last dose of study drug for each patient was considered treatment-emergent (TEAEs). This included any AE with onset prior to initiation of study drug and increased severity after the treatment initiation.
This included overall incidence rates (regardless of severity and relationship to study drug), and incidence rates for moderate or severe adverse events. A summary of SAEs and adverse events leading to early discontinuation (for 30 days) were presented through data listings. Patients who restarted study drug were included in the summary of AEs leading to discontinuation. Safety laboratory tests and vital signs were summarized by post-treatment change from baseline for each of the parameters using descriptive statistics by treatment group. […]

[3] = REDUCE-IT: treatment-emergent adverse events of the safety population
Method: Specification of Variables and Procedures: Safety assessments included adverse events, clinical laboratory measurements (chemistry, hematology), 12-lead ECGs, vital signs (systolic and diastolic blood pressure, heart rate, respiratory rate, and body temperature), weight, waist circumference, and physical examinations as per Study Procedures in Table 1. […] All laboratory test results were evaluated by the investigator as to their clinical significance. Any observations at physical examinations or laboratory values considered by the investigator to be clinically significant were considered an adverse event.
An adverse event can therefore be any unfavorable and/or unintended sign (including an abnormal laboratory finding), symptom, or disease temporally associated with the use of an investigational medication product, whether or not related to the investigational medication product. All adverse events, including observed or volunteered problems, complaints, or symptoms, were recorded on the appropriate CRF. Each adverse event was evaluated for duration, intensity, and causal relationship with the study medication or other factors.
Serious Adverse Events: A serious adverse event (SAE) is defined as an adverse event that meets any of the following criteria: • Results in death; • Is life-threatening—The term “life-threatening” in the definition of “serious” refers to an event in which the patient was at risk of death at the time of the event. […] Important medical events that may not result in death, be life threatening, or require hospitalization were considered an SAE when, based upon appropriate medical judgment, they may have jeopardized the patient and may have required medical or surgical intervention to prevent one of the outcomes listed above.
as §1
This included overall incidence rates (regardless of severity and relationship to study drug), and incidence rates for moderate or severe adverse events. A summary of SAEs and adverse events leading to early discontinuation (for 30 days) were presented through data listings. Patients who restarted study drug were included in the summary of AEs leading to discontinuation. Safety laboratory tests and vital signs were summarized by post-treatment change from baseline for each of the parameters using descriptive statistics by treatment group. Those patients with significant laboratory abnormalities were identified in data listings. Additional safety parameters were summarized in data listings.
In addition to the treatment-emergent adverse events analyses, analyses on all AEs (serious and non-serious) and all serious AEs were performed.

[4] = system: Lipid, lipoprotein, and inflammatory markers (TG, non-HDL-C, LDL-C, HDL-C, Apo B, hsCRP); assay: REDUCE-IT: fasting lipid profile and biomarker assays (lipid, lipoprotein, and inflammatory markers) over time; assay type: in vivo, human
Method: Fasting Lipid Profile: The fasting lipid panel included: TG, TC, LDL-C, HDL-C, non-HDL-C, and VLDL-C. At all visits, LDL-C was calculated using the Friedewald equation. At Visit 1 and Visit 1.1 direct LDL-C were used if at the same visit TG>400 mg/dL (4.52 mmol/L). These LDL-C values were used for the evaluation of the LDL-C inclusion criterion (LDL-C qualifying measurements for randomization) and for the assessment of changes in the statin therapy when LDL-C was not at goal. […] In addition, irrespective of the TG levels, at Visit 2 (0 Months of Follow-up, baseline) and at Visit 4 (12 Months of Follow-up), LDL-C were measured by preparative ultracentrifugation. These preparative ultracentrifugation LDL-C measurements were used in the statistical analysis including the calculation of the percent change from baseline (1 year versus baseline). Hopkins LDL-C was calculated for each visit.
Biomarkers Assays: The biomarker assays included: hsCRP, Apo B and hsTnT.
The fasting lipid panel was tested at Screening (Visit 1 or Visit 1.1), Randomization visit (Visit 2; Day 0), Visit 3 (Day 120; ˜4 Months) and all other follow-up visits including the last visit. For change from baseline to 1 year preparative ultracentrifugation measurements for LDL-C were analyzed, unless this value was missing. If the LDL-C preparative ultracentrifugation values were missing, then another LDL-C value was used, with prioritization of values obtained from LDL-C Direct measurements, followed by LDL-C derived by the Friedewald calculation (only for subjects with TG<400 mg/dL), and finally LDL-C derived using the calculation published by Hopkins University investigators (Martin S S, Blaha M J, Elshazly M B, et al. Comparison of a novel method vs the Friedewald equation for estimating low-density lipoprotein cholesterol levels from the standard lipid profile. JAMA. 2013; 310:2061-8). In addition, change from baseline to day 120 in LDL-C utilizing Friedewald's and Hopkins methods was analyzed, using the arithmetic mean of LDL-C obtained at Visit 2 (Day 0) and the preceding Visit 1 (or Visit 1.1). If one of these values was missing, the single available LDL-C value was used. LDL-C according to Hopkins was calculated at each visit.
The randomization visit was considered Baseline. If a baseline value was not available from the randomization visit, then the latest screening value was used. For measurements of lipids, lipoproteins and inflammatory markers, the change and the percent change were summarized at each visit. Since these biomarkers are typically not normally distributed, the Wilcoxon rank-sum test was used for treatment comparisons of the percent change from baseline, and medians and quartiles were provided for each treatment group. The medians of the differences between the treatment groups and 95% CIs were estimated with the Hodges-Lehmann method. In addition, shift-tables were generated as appropriate.

SMILES: CC/C=C\C/C=C\C/C=C\C/C=C\C/C=C\CCCC(=O)OCC [AMR101, icosapent ethyl]
- Key secondary composite endpoint absolute between-group difference in the rate of the endpoint ([1]; 2 g twice daily vs placebo): 3.6 percentage points
- Primary composite endpoint absolute between-group difference in the rate of the endpoint ([1]; 2 g twice daily vs placebo): 4.8 percentage points
- Cardiovascular death, % of patients ([1]; 4 g daily, ITT): 4.3%
- Total mortality, % of patients ([1]; 4 g daily, ITT): 6.7%
- Amputation for PVD (%) ([1]; ITT): (0.5%)
- Cardiac Arrest (%) ([1]; ITT): (0.5%)
- Cardiac Arrhythmias Requiring Hospitalization of ≥24 Hours (%) ([1]; ITT): (4.6%)
- Carotid Revascularization (%) ([1]; ITT): (0.8%)
- Coronary Revascularization (%) ([1]; ITT): (9.2%)
- Elective Revascularization (%) ([1]; ITT): (4.7%)
- Emergent Revascularization (%) ([1]; ITT): (1.0%)
- Hemorrhagic Stroke (%) ([1]; ITT): 0.3%
- Ischemic Stroke (%) ([1]; ITT): (2.0%)
- New Heart Failure (%) ([1]; ITT): 4.1%
- New Heart Failure Requiring Hospitalization (%) ([1]; ITT): (3.4%)
- Salvage Revascularization (%) ([1]; ITT): (0.0%)
- Sudden Cardiac Death (%) ([1]; ITT): (1.5%)
- Transient Ischemic Attack (%) ([1]; ITT): (1.6%)
- Urgent Revascularization (%) ([1]; ITT): (4.4%)
- Hemorrhagic Stroke (%) ([1]; ITT, listed as Icosapent Ethyl): (0.3%)
- New Heart Failure (%) ([1]; ITT, listed as Icosapent Ethyl): (4.1%)
- Atrial fibrillation or flutter requiring hospitalization (adjudicated tertiary endpoint), % of patients ([1]; human, in vivo): 3.1%
- New Onset of Diabetes (%) ([1]; patients with diabetes at baseline excluded): (3.8%)
- Composite of cardiovascular death or nonfatal myocardial infarction RRR ([1]; vs placebo, 4 g per day): 25%
- Composite of total mortality, nonfatal myocardial infarction, or nonfatal stroke reduction (RRR) ([1]; vs placebo, 4 g per day): 23%
- Key secondary composite endpoint relative risk reduction (RRR) ([1]; vs placebo, 4 g per day): 26%
- Primary composite endpoint relative risk reduction (RRR) ([1]; vs placebo, 4 g per day): 25%
- Reduction in heart attack ([1]; vs placebo, 4 g per day): 31%
- Total mortality reduction (RRR) ([1]; vs placebo, 4 g per day): 13%
- Total mortality HR ([1]; vs placebo, ITT): 0.87
- Primary composite endpoint number needed to treat (NNT) ([1]; vs placebo, median follow up 4.9 years): 21
- Serious gastrointestinal bleeding, rate [2]: 1.5%
- Pneumonia (serious adverse event), rate ([3]; Safety population): 2.6%
- Rate of anemia (adverse event) ([3]; Safety population): 4.7%
- Rate of atrial fibrillation (adverse event) ([3]; Safety population): 5.3%
- Rate of diarrhea (adverse event) ([3]; Safety population): 9%
- Rate of gastrointestinal adverse events ([3]; Safety population): 33.0%
- Rate of peripheral edema (adverse event) ([3]; Safety population): 6.5%
- Serious TEAE Leading to Death, % ([3]; […]): (2.3%)
- Serious TEAE, % ([3]; […]): (30.6%)
- Subjects with at Least One TEAE, % ([3]; […]): (81.8%)
- HDL-C Median Year 1 ([4]; Year 1, Table 18): 39.0 mg/dL
- LDL-C Median Year 1 ([4]; Year 1, Table 18): 77.0 mg/dL
- Non-HDL-C Median Year 1 ([4]; Year 1, Table 18): 113.0 mg/dL
- Triglycerides Median Year 1 ([4]; Year 1, Table 18): 175.0 mg/dL
- Triglycerides: median reduction from baseline greater than in the placebo group (Hodges-Lehmann) ([4]; baseline to one year, vs placebo): 19.7%
- HDL-C Median Between Group Difference at Year 1, % Change from Baseline ([4]; vs placebo, Table 18): −6.3%
- HDL-C Median Between Group Difference at Year 1, Absolute Change from Baseline ([4]; vs placebo, Table 18): -2.5 mg/dL
- LDL-C Median Between Group Difference at Year 1, % Change from Baseline ([4]; vs placebo, Table 18): −6.6%
- LDL-C Median Between Group Difference at Year 1, Absolute Change from Baseline ([4]; vs placebo, Table 18): -5.0 mg/dL
- Non-HDL-C Median Between Group Difference at Year 1, Absolute Change from Baseline ([4]; vs placebo, Table 18): -15.5 mg/dL
- Triglycerides Median Between Group Difference at Year 1, % Change from Baseline ([4]; vs placebo, Table 18): −19.7%
- Triglycerides Median Between Group Difference at Year 1, Absolute Change from Baseline ([4]; vs placebo, Table 18): -44.5 mg/dL
